Laboratory results published in article PMC4102924 (Science translational medicine, 2013).

Molecular target: PDK2 (pyruvate dehydrogenase kinase 2) (Homo sapiens, UniProt Q15119)
Assay: radiometric kinase assay with recombinant PDK2
Format: biochemical

Structure (SMILES): O=C(O)CCCc1ccccc1 [phenylbutyrate]
- Ki: 330 ± 80 µM
